From US8980587B2, “Process for producing reveromycin A or a synthetic intermediate thereof, process for producing compounds containing a spiroketal ring and novel antineoplastics, fungicides and therapeutic agents for bone disorders” (RIKEN, priority 2010, dated 2015)
Values after ≈ are worked out from the molar mass of the structure shown. Read-outs that look alike come from different tables or passages of the source.

Columns and labels:
[1] = test system: HL-60 cells (human acute promyelocytic leukemia cell line); assay: Growth-inhibiting activity against animal cells (WST-8), HL-60; assay type: cell-based; details: for IC50: Homo sapiens, read-out: HL60 IC50
Procedure: (§1) HL-60 cells (human acute promyelocytic leukemia cell line) and K562 cells (human chronic myeloid leukemia cell line) were maintained in a culture medium in which RPMI1640 medium (manufactured by Invitrogen) was added with 10% fetal bovine serum (manufactured by Nichirei), 0.5% penicillin/streptomycin solution (manufactured by Invitrogen) at 37° C. under a humidified culture of 5% CO2. tsFT210 cells (mouse breast cancer cells CDC2 temperature sensitive strain) were maintained in a culture medium in which RPMI1640 medium (manufactured by Invitrogen) was added with 5% calf serum (manufactured by Hyclone) and 0.5% penicillin/streptomycin solution at 32° C. under a humidified culture of 5% CO2.
(§2) HL-60 cells and K562 cells were seeded in a 96-well plate (manufactured by IWAKI) so as to be 1.5×10^4 cells/well/100 μl. tsFT210 cells were seeded in a 96-well plate so as to be 1.6×10^4 cell/well/100 μl. Each of the agents in Table 5 was added at 0.5% (v/v). HL-60 cells and K562 cells were maintained at 37° C. under a humidified culture of 5% CO2 and tsFT210 cells were maintain at 32° C. under a humidified culture of 5% CO2. Forty eight hours after addition of the agent, 10 μl of a reagent SF solution for counting live cells (WST-8 reagent, manufactured by Nakarai tesque) was added to each well. HL-60 cells and K562 cells were maintained at 37° C. under a humidified culture of 5% CO2 for 30 minutes and tsFT210 cells were maintain at 32° C. under a humidified culture of 5% CO2 for one hour. After the reaction, absorbance at 450 nm was measured using a microplate reader (manufactured by PerkinElmer) and a cell proliferation rate was determined from the measurement value.

[2] = test system: K562 cells (human chronic myeloid leukemia cell line); assay: Growth-inhibiting activity against animal cells (WST-8), K562; assay type: cell-based
Procedure: as §1, §2

[3] = test system: tsFT210 cells (mouse breast cancer cells CDC2 temperature sensitive strain); assay: Growth-inhibiting activity against animal cells (WST-8), tsFT210; assay type: cell-based
Procedure: as §1, §2

[4] = test system: Escherichia coli (HO141 strain); assay: Growth-inhibiting activity against Escherichia coli; assay type: cell-based; details: 6 hours, absorbance at 600 nm, read-out: E. coli IC50
Procedure: Escherichia coli (HO141 strain) was precultured in culture medium of 0.5% Polypeptone, 0.5% Meat Extract, 0.3% NaCl, and 0.001% Sodium Dodecyl Sulfate (SDS) at 37° C. Absorbance at 600 nm was measured, and Escherichia coli solution was prepared such that the absorbance is 0.005 and seeded 100 μl each in a 96-well plate. Each of the agents in Table 5 was added at 0.5% (v/v) and maintained at 37° C. Six hours after addition of the agent, absorbance at 600 nm was measured using a microplate reader (manufactured by PerkinElmer) and a proliferation rate was determined from the measurement value.

[5] = test system: Budding yeast (MLC30M strain); assay: Growth-inhibiting activity against yeast; assay type: cell-based; details: Saccharomyces cerevisiae, read-out: Yeast IC50
Procedure: Budding yeast (MLC30M strain) was precultured in a culture medium of 2% Polypeptone, 1% yeast extract, 2% glucose, 0.02% adenine, and 0.001% sodium dodecyl sulfate (SDS) at 30° C. Absorbance at 600 nm was measured, and yeast solution was prepared such that the absorbance is 0.05 and seeded 100 μl each in a 96-well plate. Each of the agents in Table 5 was added at 0.5% (v/v) and maintained at 30° C. Eighteen hours after addition of the agent, absorbance at 600 nm was measured using a microplate reader (manufactured by PerkinElmer) and a proliferation rate was determined from the measurement value.

[6] = target: T1, Isoleucyl tRNA synthetase (Homo sapiens, UniProt P41252); assay: Inhibitory activity against isoleucyl tRNA synthetase; assay type: biochemical; details: HT1080 cell lysate, [3H]isoleucine, 25° C., 20 minutes; read-out: IRS IC50 (converted)
T1 construct: 10 μg protein (HT1080 cell lysate); endogenous in cells; host or cells: HT1080 cell lysate
T1 sequence (P41252 1-1262): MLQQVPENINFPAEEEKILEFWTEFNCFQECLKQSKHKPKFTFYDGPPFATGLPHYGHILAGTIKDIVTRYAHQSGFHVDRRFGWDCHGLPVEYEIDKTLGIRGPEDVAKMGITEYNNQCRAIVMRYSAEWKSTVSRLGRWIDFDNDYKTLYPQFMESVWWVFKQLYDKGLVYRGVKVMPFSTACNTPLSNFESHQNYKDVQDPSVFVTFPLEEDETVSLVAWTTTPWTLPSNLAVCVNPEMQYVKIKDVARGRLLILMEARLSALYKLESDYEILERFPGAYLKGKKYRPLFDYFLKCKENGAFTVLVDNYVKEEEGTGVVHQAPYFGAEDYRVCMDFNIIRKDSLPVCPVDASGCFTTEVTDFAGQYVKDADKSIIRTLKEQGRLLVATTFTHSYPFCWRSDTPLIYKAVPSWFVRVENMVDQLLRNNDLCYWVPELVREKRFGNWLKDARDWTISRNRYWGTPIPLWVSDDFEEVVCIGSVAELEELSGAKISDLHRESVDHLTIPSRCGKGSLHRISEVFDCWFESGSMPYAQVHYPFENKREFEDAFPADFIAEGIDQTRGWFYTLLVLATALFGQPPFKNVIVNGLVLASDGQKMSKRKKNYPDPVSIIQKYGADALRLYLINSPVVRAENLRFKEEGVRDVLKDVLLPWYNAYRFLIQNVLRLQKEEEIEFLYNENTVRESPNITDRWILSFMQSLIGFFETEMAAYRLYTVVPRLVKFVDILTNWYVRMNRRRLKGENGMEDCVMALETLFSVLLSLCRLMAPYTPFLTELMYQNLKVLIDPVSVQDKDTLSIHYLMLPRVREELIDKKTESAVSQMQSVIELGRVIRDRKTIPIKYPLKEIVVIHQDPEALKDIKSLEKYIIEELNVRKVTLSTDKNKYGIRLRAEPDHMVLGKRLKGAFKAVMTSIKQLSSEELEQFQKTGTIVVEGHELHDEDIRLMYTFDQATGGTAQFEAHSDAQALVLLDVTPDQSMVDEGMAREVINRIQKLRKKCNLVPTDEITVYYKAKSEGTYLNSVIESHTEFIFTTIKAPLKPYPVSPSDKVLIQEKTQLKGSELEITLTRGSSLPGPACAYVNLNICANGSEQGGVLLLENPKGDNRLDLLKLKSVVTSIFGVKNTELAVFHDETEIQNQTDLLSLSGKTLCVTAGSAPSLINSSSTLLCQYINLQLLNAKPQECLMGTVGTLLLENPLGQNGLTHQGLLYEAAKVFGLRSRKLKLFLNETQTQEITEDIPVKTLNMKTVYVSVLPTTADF
Procedure: To a solution for enzymatic reaction [20 mM imidazole, pH 7.5, 75 mM MgCl2, 0.5 mM DTT, 1 U/ml tRNA (E. coli origin, manufactured by Sigma), 3 mM ATP, 1 μM isoleucine, 10 μCi/ml [^3H]isoleucine (manufactured by GE Healthcare), 10 μg protein (HT1080 cell lysate)], each of the agents in Table 5 was added at 1% (v/v) so as to attain a total amount of 100 μl and a reaction was carried out at 25° C. for 20 minutes. One mg/ml BSA solution (400 μl) and 10% TCA solution (500 μl) were then added thereto to terminate the reaction and left to stand at 4° C. overnight. A precipitate obtained by a centrifugal operation was transferred onto GF-C filter (manufactured by Whatman), washed three times with 5% TCA solution, followed by drying the filter. Two milliliters of aquasol-2 (manufactured by PerkinElmer) and the filter were placed in a vial and vigorously stirred, and then the amount of [^3H]isoleucine was measured by a liquid scintillation counter (manufactured by Beckman) to determine a rate of enzyme activity.

[7] = HL-60 cells, 48 hours after addition of the agent, WST-8
[8] = K562 cells, 48 hours after addition of the agent, WST-8, read-out: K562 IC50
[9] = tsFT210 cells, 32° C., 48 hours after addition of the agent, WST-8, read-out: tsFT210 IC50
[10] = MLC30M strain, 18 hours, absorbance at 600 nm
[11] = K562, 48 h, read-out: K562 IC50
[12] = tsFT210, 48 h, read-out: tsFT210 IC50

## CCCCC(CCC(O)CCC(C)C(O)C/C=C(C)/C=C/C(O)C(C)/C=C/C(=O)O)C(O)/C=C/C(C)=C/CC(O)CC (stereo not drawn) [RM-A1a]
[1]; [7]
  IC50: 20.9 µg/mL (≈ 35.3 µM)
[2]; [8]
  IC50: > 30 µg/mL
[3]; [9]
  IC50: > 30 µg/mL
[4]
  IC50: > 50 µg/mL
[5]; [10]
  IC50: > 50 µg/mL

## CCCCC1CCC(CCC(C)C(O)C/C=C(C)/C=C/C(O)C(C)/C=C/C(=O)O)OC1/C=C/C(C)=C/CC(O)CC (stereo not drawn) [RM-A1b]
[1]; [7]
  IC50: 7.4 µg/mL (≈ 12.9 µM)
[2]; [8]
  IC50: 21.1 µg/mL (≈ 36.7 µM)
[3]; [9]
  IC50: 17.4 µg/mL (≈ 30.3 µM)
[4]
  IC50: 31.9 µg/mL (≈ 55.5 µM)
[5]; [10]
  IC50: > 50 µg/mL

## CCCCC1CCC2(CCC(C)C(C/C=C(C)/C=C/C(O)C(C)/C=C/C(=O)O)O2)OC1/C=C/C(C)=C/CC(O)CC (stereo not drawn) [RM-A1c]
[1]; HL-60, 48 h
  IC50: 6.3 µg/mL (≈ 11 µM)
[2]; [11]
  IC50: 3.4 µg/mL (≈ 5.94 µM)
[3]; [12]
  IC50: 6.4 µg/mL (≈ 11.2 µM)
[4]
  IC50: > 50 µg/mL
[5]; 18 h
  IC50: > 50 µg/mL
[6]
  IC50: 16.8 µM

## CCCCC(CCC(O)CCC(C)C(O)C/C=C(C)/C=C/C(O)C(C)/C=C/C(=O)O)C(O)/C=C/C(C)=C/C(=O)O (stereo not drawn) [RM-A1e]
[1]; [7]
  IC50: > 30 µg/mL
[2]; [8]
  IC50: > 30 µg/mL
[3]; [9]
  IC50: > 30 µg/mL
[4]
  IC50: > 50 µg/mL
[5]; [10]
  IC50: 48.2 µg/mL (≈ 85.3 µM)

## CCCCC(CCC(O)CCC(C)C(O)C/C=C(C)/C=C/C(O)C(C)/C=C/C(=O)O)C(O)C/C=C(C)/C=C/C(=O)CC (stereo not drawn) [RM-A2b]
[1]; [7]
  IC50: > 30 µg/mL
[2]; [8]
  IC50: > 30 µg/mL
[3]; [9]
  IC50: > 30 µg/mL
[4]
  IC50: > 50 µg/mL
[5]; [10]
  IC50: > 50 µg/mL

## CCCCC1CCC2(CCC(C)C(C/C=C(C)/C=C/C(O)C(C)/C=C/C(=O)O)O2)OC1/C=C/C(C)=C/CO (stereo not drawn) [RM-A6a]
[1]; HL-60, 48 h
  IC50: 7 µg/mL (≈ 13.2 µM)
[2]; [11]
  IC50: 14.8 µg/mL (≈ 27.9 µM)
[3]; [12]
  IC50: 6.8 µg/mL (≈ 12.8 µM)
[4]
  IC50: 24.6 µg/mL (≈ 46.3 µM)
[5]; 18 h
  IC50: 31.5 µg/mL (≈ 59.4 µM)

## CCCCC1CCC2(CCC(C)C(C/C=C(C)/C=C/C(O)C(C)/C=C/C(=O)O)O2)OC1/C=C/C(C)=C/COC(=O)CC (stereo not drawn) [RM-A8a]
[1]; HL-60, 48 h
  IC50: 18 µg/mL (≈ 30.7 µM)
[2]; [11]
  IC50: 18.5 µg/mL (≈ 31.5 µM)
[3]; [12]
  IC50: 22.3 µg/mL (≈ 38 µM)
[4]
  IC50: > 50 µg/mL
[5]; 18 h
  IC50: > 50 µg/mL

## CCCC[C@@]1(OC(=O)CCC(=O)O)CC[C@]2(CC[C@H](C)[C@@H](C/C=C(C)/C=C/[C@H](O)[C@@H](C)/C=C/C(=O)O)O2)O[C@H]1/C=C/C(C)=C/CO [RM-A9a]
[1]; HL-60, 48 h
  IC50: 21 µg/mL (≈ 32.5 µM)
[2]; [11]
  IC50: 22.3 µg/mL (≈ 34.5 µM)
[3]; [12]
  IC50: 24.6 µg/mL (≈ 38 µM)
[4]
  IC50: > 50 µg/mL
[5]; 18 h
  IC50: 26.4 µg/mL (≈ 40.8 µM)

## CCCC[C@H]1CC[C@]2(CC[C@H](C)[C@@H](C/C=C(C)/C=C/[C@H](O)[C@@H](C)/C=C/C(=O)OC)O2)O[C@H]1/C=C/C(C)=C/C(=O)O [RM-T methyl-ester]
[1]; HL-60, 48 h
  IC50: 0.9 µg/mL (≈ 1.61 µM)
[1]; summary of Table 5 (HL60, K562, tsFT210), RM-T as compared with RM-A
  cancer cell growth-inhibiting activity (in words): high
[2]; [11]
  IC50: 2.5 µg/mL (≈ 4.47 µM)
[3]; [12]
  IC50: 8.2 µg/mL (≈ 14.7 µM)
[4]
  IC50: > 50 µg/mL
[5]; 18 h
  IC50: > 50 µg/mL

## CC(/C=C/[C@H](O)[C@@H](C)/C=C/C(=O)O)=C\C[C@H]1O[C@@]2(CC[C@H](C)[C@H](/C=C/C(C)=C/C(=O)O)O2)CC[C@@H]1C [SF-A, spirofungin A, reference compound]
[1]; [7]
  IC50: 1.2 µg/mL (≈ 2.39 µM)
[2]; [8]
  IC50: 3.4 µg/mL (≈ 6.76 µM)
[3]; [9]
  IC50: > 30 µg/mL
[4]
  IC50: > 50 µg/mL
[5]; [10]
  IC50: 0.3 µg/mL (≈ 0.597 µM)

## CC(/C=C/[C@H](O)[C@@H](C)/C=C/C(=O)O)=C\C[C@H]1O[C@]2(CC[C@H](C)[C@H](/C=C/C(C)=C/C(=O)O)O2)CC[C@@H]1C [SF-B, spirofungin B, reference compound]
[1]; [7]
  IC50: > 30 µg/mL
[2]; [8]
  IC50: > 30 µg/mL
[3]; [9]
  IC50: > 30 µg/mL
[4]
  IC50: > 50 µg/mL
[5]; [10]
  IC50: 4 µg/mL (≈ 7.96 µM)
